Test system: not listed separately
Assay: Selectivity index, ratio of CC50 for human THLE2 cells to IC50 for human HepG2 cells
Type: toxicity
Details: THLE2 cells and HepG2 cells, read-out: Ratio CC50/IC50

Compound | selectivity ratio
O=C(C=CNc1cc(-c2ccccc2)nn1-c1ccccc1)c1cccs1 | 8.22
O=C(C=CNc1cc(-c2ccccc2)nn1-c1ccccc1)c1ccccc1 | 20.1
Fc1ccc(-c2ccnc3c2c(-c2ccccc2)nn3-c2ccccc2)cc1 | 12.5

Test system: HepG2
Assay: Induction of apoptosis in human HepG2 cells assessed as caspase-3 concentration at IC50 by ELISA (reference value: 0.03822 +/- 0.0029 ng/ml)
Type: functional
Details: not given

Compound | Activity [ng/mL]
Fc1ccc(-c2ccnc3c2c(-c2ccccc2)nn3-c2ccccc2)cc1 | 0.3872

Target: Cyclin-dependent kinase 1/cyclin B1 (Homo sapiens, UniProt P06493)
Assay: Inhibition of CDK1/cyclin B (unknown origin)
Type: protein-complex assay
Details: not given

Sequence of Cyclin-dependent kinase 1/cyclin B1 (P06493 whole entry): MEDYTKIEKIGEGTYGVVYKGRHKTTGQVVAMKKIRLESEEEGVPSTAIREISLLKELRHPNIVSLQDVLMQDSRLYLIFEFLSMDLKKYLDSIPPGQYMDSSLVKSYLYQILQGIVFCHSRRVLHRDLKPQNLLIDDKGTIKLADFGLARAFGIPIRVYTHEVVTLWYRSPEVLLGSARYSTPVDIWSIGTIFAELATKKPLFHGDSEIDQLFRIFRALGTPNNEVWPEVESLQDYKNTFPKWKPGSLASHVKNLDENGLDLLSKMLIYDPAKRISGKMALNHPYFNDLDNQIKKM
Sequence of Cyclin-dependent kinase 1/cyclin B1 (P14635 whole entry, further chain): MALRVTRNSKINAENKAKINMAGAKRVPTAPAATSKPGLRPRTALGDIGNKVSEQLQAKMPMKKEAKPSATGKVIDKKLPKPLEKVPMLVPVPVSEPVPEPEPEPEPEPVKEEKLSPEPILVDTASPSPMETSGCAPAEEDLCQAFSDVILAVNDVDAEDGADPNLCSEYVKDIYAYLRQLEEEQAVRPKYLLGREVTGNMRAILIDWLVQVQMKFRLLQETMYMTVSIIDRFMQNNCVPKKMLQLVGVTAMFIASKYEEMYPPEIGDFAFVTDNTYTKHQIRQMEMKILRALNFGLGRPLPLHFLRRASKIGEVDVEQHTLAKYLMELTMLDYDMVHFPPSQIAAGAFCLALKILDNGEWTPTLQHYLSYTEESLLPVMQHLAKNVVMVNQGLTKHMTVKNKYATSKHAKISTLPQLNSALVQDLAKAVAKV

Compound | IC50 [nM] | Ki [nM]
Fc1ccc(-c2ccnc3c2c(-c2ccccc2)nn3-c2ccccc2)cc1 | 1350 | 823

Test system: HepG2
Assay: Induction of apoptosis in human HepG2 cells assessed as late apoptotic cells at IC50 after 48 hrs by Annexin V-FITC/propidium iodide staining based flow cytometric analysis (reference value: 0.18 %)
Type: functional
Details: not given

Compound | Activity [%]
Fc1ccc(-c2ccnc3c2c(-c2ccccc2)nn3-c2ccccc2)cc1 | 17.43

Test system: HepG2
Assay: Induction of apoptosis in human HepG2 cells assessed as early apoptotic cells at IC50 after 48 hrs by Annexin V-FITC/propidium iodide staining based flow cytometric analysis (reference value: 0.38 %)
Type: functional
Details: not given

Compound | Activity [%]
Fc1ccc(-c2ccnc3c2c(-c2ccccc2)nn3-c2ccccc2)cc1 | 6.15

Test system: not listed separately
Assay: Selectivity index, ratio of CC50 for human MCF10A cells to IC50 for human MCF7 cells
Type: toxicity
Details: MCF10A cells and MCF7 cells, read-out: Ratio CC50/IC50

Compound | selectivity ratio
Fc1ccc(-c2ccnc3c2c(-c2ccccc2)nn3-c2ccccc2)cc1 | 18

Test system: not listed separately
Assay: Cytotoxicity against human THLE2 cells assessed as reduction in cell viability by MTT assay
Type: cell-based, THLE-2
Details: not given

Compound | CC50 [nM]
O=C(C=CNc1cc(-c2ccccc2)nn1-c1ccccc1)c1cccs1 | 19900
O=C(C=CNc1cc(-c2ccccc2)nn1-c1ccccc1)c1ccccc1 | 53400
Fc1ccc(-c2ccnc3c2c(-c2ccccc2)nn3-c2ccccc2)cc1 | 19700

Target: Cyclin-dependent kinase 7/ cyclin H (Homo sapiens, UniProt P50613)
Assay: Inhibition of CDK7/cyclin H (unknown origin)
Type: protein-complex assay
Details: not given

Sequence of Cyclin-dependent kinase 7/ cyclin H (P51946 whole entry): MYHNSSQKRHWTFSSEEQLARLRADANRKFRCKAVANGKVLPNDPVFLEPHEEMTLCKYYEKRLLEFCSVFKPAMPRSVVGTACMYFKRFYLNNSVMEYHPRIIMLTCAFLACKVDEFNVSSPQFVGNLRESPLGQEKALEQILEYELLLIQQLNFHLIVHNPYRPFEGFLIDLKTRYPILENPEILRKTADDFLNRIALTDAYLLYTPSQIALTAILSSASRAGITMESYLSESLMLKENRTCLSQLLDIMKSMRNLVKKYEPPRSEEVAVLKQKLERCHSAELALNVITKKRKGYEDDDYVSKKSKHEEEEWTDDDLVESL
Sequence of Cyclin-dependent kinase 7/ cyclin H (P50613 whole entry): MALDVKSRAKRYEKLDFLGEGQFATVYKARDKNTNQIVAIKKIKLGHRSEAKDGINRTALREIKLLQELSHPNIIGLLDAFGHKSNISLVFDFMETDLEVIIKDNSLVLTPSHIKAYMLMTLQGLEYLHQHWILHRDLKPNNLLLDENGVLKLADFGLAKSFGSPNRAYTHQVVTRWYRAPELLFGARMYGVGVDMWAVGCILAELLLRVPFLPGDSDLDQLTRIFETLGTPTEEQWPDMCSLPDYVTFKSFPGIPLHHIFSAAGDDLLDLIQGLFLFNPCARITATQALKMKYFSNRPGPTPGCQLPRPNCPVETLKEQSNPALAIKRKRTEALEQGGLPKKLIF

Compound | IC50 [nM] | Ki [nM]
Fc1ccc(-c2ccnc3c2c(-c2ccccc2)nn3-c2ccccc2)cc1 | 1990 | 1270

Test system: MCF7
Assay: Antiproliferative activity against human MCF7 cells assessed as inhibition of cell growth after 48 hrs by MTT assay
Type: functional, cell-based
Details: MCF7, 48 h

Compound | IC50 [nM]
O=C(C=CNc1cc(-c2ccccc2)nn1-c1ccccc1)c1cccs1 | 15400
O=C(C=CNc1cc(-c2ccccc2)nn1-c1ccccc1)c1ccccc1 | 9650
Fc1ccc(-c2ccnc3c2c(-c2ccccc2)nn3-c2ccccc2)cc1 | 1570

Test system: not listed separately
Assay: Cytotoxicity against human MCF10A cells assessed as reduction in cell viability by MTT assay
Type: cell-based, MCF-10A
Details: not given

Compound | CC50 [nM]
Fc1ccc(-c2ccnc3c2c(-c2ccccc2)nn3-c2ccccc2)cc1 | 28300

Test system: HepG2
Assay: Induction of apoptosis in human HepG2 cells assessed as fold increase in caspase-3 activation at IC50 by ELISA
Type: functional
Details: not given

Compound | fold change (FC)
Fc1ccc(-c2ccnc3c2c(-c2ccccc2)nn3-c2ccccc2)cc1 | 10

Test system: HepG2
Assay: Antiproliferative activity against human HepG2 cells assessed as inhibition of cell growth after 48 hrs by MTT assay
Type: functional, cell-based
Details: HepG2, 48 h

Compound | IC50 [nM]
O=C(C=CNc1cc(-c2ccccc2)nn1-c1ccccc1)c1cccs1 | 2420
O=C(C=CNc1cc(-c2ccccc2)nn1-c1ccccc1)c1ccccc1 | 2660
Fc1ccc(-c2ccnc3c2c(-c2ccccc2)nn3-c2ccccc2)cc1 | 1570

Test system: HepG2
Assay: Induction of cell cycle arrest in human HepG2 cells assessed as accumulation at G0/G1 phase at IC50 after 48 hrs by propidium iodide staining based Flow cytometric analysis (reference value: 47.29%)
Type: functional
Details: not given

Compound | Activity [%]
Fc1ccc(-c2ccnc3c2c(-c2ccccc2)nn3-c2ccccc2)cc1 | 38.47

Test system: HepG2
Assay: Induction of cell cycle arrest in human HepG2 cells assessed as accumulation at G2/M phase at IC50 after 48 hrs by propidium iodide staining based Flow cytometric analysis (reference value: 7.34%)
Type: functional
Details: not given

Compound | Activity [%]
Fc1ccc(-c2ccnc3c2c(-c2ccccc2)nn3-c2ccccc2)cc1 | 37.64

Target: Cyclin-dependent kinase 4/cyclin D1 (Homo sapiens, UniProt P11802)
Assay: Inhibition of CDK4/cyclin D1 (unknown origin)
Type: protein-complex assay
Details: not given

Sequence of Cyclin-dependent kinase 4/cyclin D1 (P11802 whole entry): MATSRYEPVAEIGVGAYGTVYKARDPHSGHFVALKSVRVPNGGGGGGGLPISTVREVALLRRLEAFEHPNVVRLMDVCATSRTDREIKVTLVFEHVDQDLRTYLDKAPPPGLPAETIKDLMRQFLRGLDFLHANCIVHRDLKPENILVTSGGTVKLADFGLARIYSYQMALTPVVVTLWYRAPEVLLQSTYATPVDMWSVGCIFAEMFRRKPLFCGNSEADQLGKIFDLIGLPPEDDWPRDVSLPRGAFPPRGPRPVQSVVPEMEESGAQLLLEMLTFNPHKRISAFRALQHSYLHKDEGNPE
Sequence of Cyclin-dependent kinase 4/cyclin D1 (P24385 whole entry, further chain): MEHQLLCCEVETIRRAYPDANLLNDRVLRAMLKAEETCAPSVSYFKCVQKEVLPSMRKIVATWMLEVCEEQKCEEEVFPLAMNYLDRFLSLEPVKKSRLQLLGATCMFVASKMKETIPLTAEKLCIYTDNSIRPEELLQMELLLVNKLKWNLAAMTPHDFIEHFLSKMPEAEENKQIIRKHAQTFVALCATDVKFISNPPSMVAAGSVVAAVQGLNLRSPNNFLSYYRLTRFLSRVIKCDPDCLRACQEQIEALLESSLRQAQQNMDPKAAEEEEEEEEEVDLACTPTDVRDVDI

Compound | IC50 [nM] | Ki [nM]
Fc1ccc(-c2ccnc3c2c(-c2ccccc2)nn3-c2ccccc2)cc1 | 6920 | 3780

Test system: HepG2
Assay: Induction of cell cycle arrest in human HepG2 cells assessed as accumulation at S phase at IC50 after 48 hrs by propidium iodide staining based Flow cytometric analysis (reference value: 45.37%)
Type: functional
Details: not given

Compound | Activity [%]
Fc1ccc(-c2ccnc3c2c(-c2ccccc2)nn3-c2ccccc2)cc1 | 23.89

Test system: HepG2
Assay: Induction of cell cycle arrest in human HepG2 cells assessed as accumulation at pre-G1 phase at IC50 after 48 hrs by propidium iodide staining based Flow cytometric analysis (reference value: 1.52%)
Type: functional
Details: not given

Compound | Activity [%]
Fc1ccc(-c2ccnc3c2c(-c2ccccc2)nn3-c2ccccc2)cc1 | 32.19

Target: CDK2/Cyclin A2 (Homo sapiens, UniProt P24941)
Assay: Inhibition of CDK2/Cyclin A2 (unknown origin) after 10 mins by ADP-Glo reagent based assay
Type: protein-complex assay
Details: not given

Compound | IC50 [nM] | Ki [nM]
O=C(C=CNc1cc(-c2ccccc2)nn1-c1ccccc1)c1cccs1 | 201 | –
O=C(C=CNc1cc(-c2ccccc2)nn1-c1ccccc1)c1ccccc1 | 318 | –
Fc1ccc(-c2ccnc3c2c(-c2ccccc2)nn3-c2ccccc2)cc1 | 41.5 | 25

Test system: HepG2
Assay: Induction of apoptosis in human HepG2 cells assessed as total apoptotic cells at IC50 after 48 hrs by Annexin V-FITC/propidium iodide staining based flow cytometric analysis (reference value: 1.52 %)
Type: functional
Details: not given

Compound | Activity [%]
Fc1ccc(-c2ccnc3c2c(-c2ccccc2)nn3-c2ccccc2)cc1 | 32.19
